Test results from US12630523B2, “Isoquinoline derivatives for use as antiviral and antitumour agents” (priority 2021, dated 2026).
Several values for one entry are separate records, joined by “and”; a condition that tells them apart may be missing. Equal entries are not always repeated. Where two headings read alike, the source gives them in different places.

Columns and labels:
[1] = tested on: CaSki cells; test: Cell cycle analysis using Propidium-Iodide staining (flow cytometry); assay type: cell-based, human; details: 48 hour incubation; for A*/5 μM (apoptosis as measured from total SUB G1 content) / A*/10 μM (apoptosis as measured from total SUB G1 content): no treatment 15.0; for G2/5 μM / G1/5 μM / G2/10 μM / G1/10 μM: cell cycle distribution; for G2/5 μM / G2/10 μM: no treatment 15.6; for G1/5 μM / G1/10 μM: no treatment 53.3
Experimental: Propidium-Iodide (PI) DNA staining is performed to facilitate cell cycle analysis. For PI-DNA staining, fixed cells and eventually antibody-stained cells are resuspended in 450 μl of PBS (per 10^6 cells) and incubated with 100 μg/ml RNase (stock 1 mg/ml, in PBS) for 10 minutes at 37° C. Cells are then incubated with 5 μg/106 cells of PI (stock 1 mg/ml in PBS) for 10 minutes at room temperature. Samples are stored at 4° C. until CF analysis.
CaSki cells were incubated with various compounds and cell cycle distribution of the cells was assessed using Propidium-Iodide staining.
In order to analyze the cytostatic versus the cytotoxic effect of OC compounds, cell cycle profiles were analyzed in vitro after 48 hour incubations using Flow Cytometry as a read out. For this a cell cycle analysis from selected OC E7 degrader compounds was conducted in CaSki cells. Using 6 well plates, 1.5×10^5 cells were seeded for each well and grown over night at 37° C. 5% CO2. For analysis of the cell cycle behavior, cells were analyzed in the presence of propidium Iodide (PI^−) by flow cytometry (FC). Briefly, cells were detached by trypsin digestion, all supernatants were included in the analysis, and fixed with 70% ice cold ethanol and stored at 4° C. until FC analysis using PI^− staining (1 mg/ml). At least 7000 events were acquired for each sample.

[2] = tested on: CaSki (ATCC CRM-CRL-1550); test: Monolayer assay using Sulphorhodamine B (SRB) staining, CaSki; assay type: cell-based; details: Homo sapiens, Ca-Ski
Outline: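 After 24 h recovery, 10.000–30.000 cells/well treated 72 h with compound at 9 concentrations. Cells TCA-fixed (10% final) 1 h at 4 °C, SRB-stained, optical density read at 540 nm; EC50 for growth inhibition from non-linear regression of log concentration versus % T/C.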

[3] = tested on: SARS-CoV-2 isolate BetaCov/Belgium/GHB-03021/2020; test: microbe, parasite or virus in culture; assay type: cell-based; details: for inhibition at 1.25 µM: Severe acute respiratory syndrome coronavirus 2, 1.25 μM (non-toxic compound concentration), n4; for SARS-CoV-2 antiviral activity, mono treatment or combination (FIG. 10): Vero E6 cells, VSP035 10-0.625 μM
[4] = tested on: human cervical carcinoma (CaSki) xenograft; test: CaSki high risk HPV16 human cervical carcinoma xenograft model; assay type: in vivo, nude mice; details: for % TGI (Day 44): percentage tumor growth inhibition with respect to controls / Δ% on Day 44 / Δ% Body Weight: OC246/OC974 os 2 mg/kg/day; for % TGI (Day 44): percentage tumor growth inhibition with respect to controls: 4 × week; for % TGI (Day 44): percentage tumor growth inhibition with respect to controls / Tumor Volume Day 44 (mm^3 ± SD): 3 cycles, CDDP i.v. q7d × 3, 6 mg/kg; for Δ% on Day 44 / Δ% Body Weight: CDDP i.v. 6 mg/kg; for Δ% on Day 44: control 100; for Tumor Volume Day 44 (mm^3 ± SD): OC246/OC974 os daily 4 × week, 2 mg/kg/day, control 1099 ± 503; for Δ% Body Weight: between first day of treatment (day 20) and Day 44, control +4.9
Experimental: The aim of this study was to assess the in vivo efficacy of OC246 and OC974 on a human cervical carcinoma (CaSki) xenograft model in nude mice. OC246 and OC974 were administered oral once daily for four times with three days off, for three cycles at 2 mg/kg/dose. Cisplatin (CDDP) was used as a reference compound with three weekly intravenous (q7dx3) administrations of 6 mg/kg.

SMILES	A*/5 μM (apoptosis as measured from total SUB G1 content) [1]	A*/10 μM (apoptosis as measured from total SUB G1 content) [1]	G2/5 μM [1]	G1/5 μM [1]	G2/10 μM [1]	G1/10 μM [1]	EC50 ([2]; read-out: EC50 mean [nM])	inhibition at 1.25 µM [3]	% TGI (Day 44): percentage tumor growth inhibition with respect to controls [4]	Δ% on Day 44 [4]	Tumor Volume Day 44 (mm^3 ± SD) [4]	Δ% Body Weight [4]	SARS-CoV-2 antiviral activity, mono treatment or combination (FIG. 10) [3]	SARS-CoV-2 antiviral activity, mono treatment or combination (FIG. 10) ([3]; listed as VS035)	EC50 ([2]; 72 h)
CN1CCC(CN2C(=O)c3ccccc3[C@@H](C(=O)Nc3cccc(N4CCN(C)CC4)c3)[C@@H]2c2ccc(C(F)(F)F)cc2)CC1 (racemic) [OC974, (3R,4R)- and (3S,4S)-N-[3-(4-methylpiperazin-1-yl)phenyl]-2-[(1-methylpiperidin-4-yl)methyl]-1-oxo-3-[4-(trifluoromethyl)phenyl]-3,4-dihydroisoquinoline-4-carboxamide]	19.5%	82.9% and 81.8%	9.9%	49.6%	0.8%	8.7%	1550 nM	54.3%	63.9%	23%	307 ± 171 mm^3	+1.1%	–	–	–
CN1CCC(CN2C(=O)c3ccccc3[C@H](C(=O)Nc3cccc(N4CCN(C)CC4)c3)[C@H]2c2ccc(C(F)(F)F)cc2)CC1 [VSP035, (3S,4S)-N-[3-(4-methylpiperazin-1-yl)phenyl]-2-[(1-methylpiperidin-4-yl)methyl]-1-oxo-3-[4-(trifluoromethyl)phenyl]-1,2,3,4-tetrahydroisoquinoline-4-carboxamide]	–	–	–	–	–	–	3750 nM	72.4%	–	–	–	–	moderate	Robust antiviral activities	–
Cc1ccc(CN2C(=O)c3ccccc3[C@H](C(=O)Nc3cccc(N4CCN(C)CC4)c3)[C@@H]2c2ccc(C(F)(F)F)cc2)cc1 [OC246, N-[3-(4-methylpiperazin-1-yl)phenyl]-2-[(4-methylphenyl)methyl]-1-oxo-3-[4-(trifluoromethyl)phenyl]-1,2,3,4-tetrahydroisoquinoline-4-carboxamide]	19.6%	89.4%	15.7%	48.0%	0.2%	1.5%	3050 nM	45.7%	66.6%	27%	371 ± 153 mm^3	+5.5%	–	–	2890 nM
